Experimental data: ChEMBL document CHEMBL4420062, “Tfpi inhibitors and methods of use” (2013)

Columns and labels:
[1] = Stability in human plasma assessed as parent compound remaining after 24 hrs; format: ADME, cell-free; conditions: read-out: Stability
[2] = Stability in mouse plasma assessed as parent compound remaining after 24 hrs; format: ADME, cell-free; conditions: read-out: Stability

SMILES	remaining at 24 h [1]	remaining at 24 h [2]
CCCC[C@H](NC(=O)C(C)(C)NC(=O)[C@H](CC(C)C)NC(=O)[C@H](CCCNC(=N)N)NC(=O)[C@H](CCC(=O)O)NC(=O)[C@H](Cc1ccccc1)NC(=O)[C@H](Cc1ccc(O)cc1)NC(=O)CNC(=O)[C@H](CC(=O)O)NC(=O)[C@@H](NC(=O)[C@H](Cc1cnc[nH]1)NC(=O)[C@@H](NC(=O)[C@H](CC(N)=O)NC(=O)[C@H]1CCCN1C(=O)[C@H](CCCCN)NC(=O)[C@H](CO)NC(=O)[C@H](CCC(N)=O)NC(=O)[C@H](Cc1ccccc1)NC(C)=O)C(C)C)C(C)(C)C)C(=O)N[C@@H](CCCCN)C(=O)N[C@@H](CC(C)C)C(N)=O	90.1%	17%
CC(=O)N[C@@H](Cc1ccccc1)C(=O)N[C@@H](CCC(N)=O)C(=O)N[C@@H](CO)C(=O)N[C@@H](CCCCN)C(=O)N1CCC[C@@H]1C(=O)N[C@@H](CC(N)=O)C(=O)N[C@H](C(=O)N[C@@H](Cc1cnc[nH]1)C(=O)N[C@H](C(=O)N1CCC[C@H]1C(=O)N[C@H](C)C(=O)N[C@@H](Cc1ccc(O)cc1)C(=O)N[C@@H](Cc1ccccc1)C(=O)N[C@@H](CCC(=O)O)C(=O)N[C@@H](CCCNC(=N)N)C(=O)N[C@@H](CC(C)C)C(=O)NC(C)(C)C(=O)N[C@@H](C)C(=O)N[C@@H](CCCCN)C(=O)N[C@@H](CC(C)C)C(N)=O)C(C)C)C(C)C	99.3%	27.3%
CC(C)C[C@H](NC(=O)[C@H](CCCCN)NC(=O)[C@H](C)NC(=O)C(C)(C)NC(=O)[C@H](CC(C)C)NC(=O)[C@H](CCCNC(=N)N)NC(=O)[C@H](CCC(=O)O)NC(=O)[C@H](Cc1ccccc1)NC(=O)[C@H](Cc1ccc(O)cc1)NC(=O)[C@@H](C)NC(=O)[C@H](CC(=O)O)NC(=O)[C@@H](NC(=O)[C@H](Cc1cnc[nH]1)NC(=O)[C@@H](NC(=O)[C@H](CC(N)=O)NC(=O)[C@H]1CCCN1C(=O)[C@H](CCCCN)NC(=O)[C@H](CO)NC(=O)[C@H](CCC(N)=O)NC(=O)[C@H](Cc1ccccc1)NS(=O)(=O)c1cccc2ccccc12)C(C)C)C(C)(C)C)C(N)=O	107%	52%
CC(=O)N[C@@H](Cc1ccccc1)C(=O)N[C@@H](CCC(N)=O)C(=O)N[C@@H](CO)C(=O)N[C@@H](CCCCN)C(=O)N1CCC[C@@H]1C(=O)N[C@@H](CC(N)=O)C(=O)N[C@H](C(=O)N[C@@H](Cc1cnc[nH]1)C(=O)N[C@H](C(=O)N[C@@H](CC(=O)O)C(=O)NCC(=O)N[C@@H](Cc1ccc(O)cc1)C(=O)N[C@@H](Cc1ccccc1)C(=O)N[C@@H](CCC(=O)O)C(=O)N[C@@H](CCCNC(=N)N)C(=O)N[C@@H](CC(C)C)C(=O)NC(C)(C)C(=O)N[C@@H](C)C(=O)N[C@@H](CCCCN)C(=O)N[C@@H](CC(C)C)C(N)=O)C(C)C)C(C)C	10 to 27%	5 to 10%
CC(=O)NCSC[C@H](NC(=O)[C@H]1CCCN1C(=O)[C@H](CCCCN)NC(=O)[C@H](CO)NC(=O)[C@H](CCC(N)=O)NC(=O)[C@H](Cc1ccccc1)NC(C)=O)C(=O)N[C@H](C(=O)N[C@@H](Cc1c[nH]cn1)C(=O)N[C@H](C(=O)N[C@@H](CC(=O)O)C(=O)NCC(=O)N[C@@H](Cc1ccc(O)cc1)C(=O)N[C@@H](Cc1ccccc1)C(=O)N[C@@H](CCC(=O)O)C(=O)N[C@@H](CCCNC(=N)N)C(=O)N[C@@H](CC(C)C)C(=O)NC(C)(C)C(=O)N[C@@H](C)C(=O)N[C@@H](CCCCN)C(=O)N[C@@H](CC(C)C)C(N)=O)C(C)(C)C)C(C)C	81.2%	36.1%
CC(=O)N[C@@H](Cc1ccccc1)C(=O)N[C@@H](CCC(N)=O)C(=O)N[C@@H](CO)C(=O)N[C@@H](CCCCN)C(=O)N1CCC[C@@H]1C(=O)N[C@@H](CC(N)=O)C(=O)N[C@H](C(=O)N[C@@H](Cc1cnc[nH]1)C(=O)N[C@H](C(=O)N[C@@H](CC(=O)O)C(=O)NCC(=O)N[C@@H](Cc1ccc(O)cc1)C(=O)N[C@@H](Cc1ccccc1)C(=O)N[C@@H](CCC(=O)O)C(=O)N[C@@H](CCCNC(=N)N)C(=O)N[C@@H](CC(C)C)C(=O)NC(C)(C)C(=O)N[C@@H](CC(C)C)C(=O)N[C@@H](CCCCN)C(=O)N[C@@H](CC(C)C)C(N)=O)C(C)(C)C)C(C)C	78.7%	13.7%
CC(=O)N[C@@H](Cc1ccccc1)C(=O)N[C@@H](CCC(N)=O)C(=O)N[C@@H](CO)C(=O)N[C@@H](CCCCN)C(=O)N1CCC[C@@H]1C(=O)N[C@@H](CC(N)=O)C(=O)N[C@H](C(=O)N[C@@H](Cc1cnc[nH]1)C(=O)N[C@H](C(=O)N[C@@H](CC(=O)O)C(=O)N[C@H](C)C(=O)N[C@@H](Cc1ccc(O)cc1)C(=O)N[C@@H](Cc1ccccc1)C(=O)N[C@@H](CCC(=O)O)C(=O)N[C@@H](CCCNC(=N)N)C(=O)N[C@@H](CC(C)C)C(=O)NC(C)(C)C(=O)N[C@@H](C)C(=O)N[C@@H](CCCCN)C(=O)N[C@@H](CC(C)C)C(N)=O)C(C)(C)C)C(C)C	100%	47.2%
CC(=O)N[C@@H](Cc1ccccc1)C(=O)N[C@@H](CCC(N)=O)C(=O)N[C@@H](CO)C(=O)N[C@@H](CCCCN)C(=O)N1CCC[C@@H]1C(=O)N[C@@H](CC(N)=O)C(=O)N[C@H](C(=O)N[C@@H](Cc1cnc[nH]1)C(=O)N[C@H](C(=O)N[C@@H](CC(=O)O)C(=O)N[C@H](C)C(=O)N[C@@H](Cc1ccc(O)cc1)C(=O)N[C@@H](Cc1ccccc1)C(=O)N[C@@H](CCC(=O)O)C(=O)N[C@@H](CCCNC(=N)N)C(=O)N[C@@H](CC(C)C)C(=O)NC1(C(=O)N[C@@H](C)C(=O)N[C@@H](CCCCN)C(=O)N[C@@H](CC(C)C)C(N)=O)Cc2ccccc2C1)C(C)(C)C)C(C)C	104%	53%
CC(=O)N[C@@H](Cc1ccccc1)C(=O)N[C@@H](CCC(N)=O)C(=O)N[C@@H](CO)C(=O)N[C@@H](CCCCN)C(=O)N1CCC[C@@H]1C(=O)N[C@@H](CC(N)=O)C(=O)N[C@H](C(=O)N[C@@H](Cc1cnc[nH]1)C(=O)N[C@H](C(=O)N[C@@H](CC(=O)O)C(=O)N[C@H](C)C(=O)N[C@@H](Cc1ccc(O)cc1)C(=O)N[C@@H](Cc1ccccc1)C(=O)N[C@@H](CCC(=O)O)C(=O)N[C@@H](CCCNC(=N)N)C(=O)N[C@@H](CC(C)C)C(=O)NC(C)(C)C(=O)N[C@@H]1CSSCCNC(=O)[C@H](CC(C)C)NC(=O)[C@H](CCCCN)NC1=O)C(C)(C)C)C(C)C	12.1%	34.3%
CC(=O)N[C@@H](Cc1cccs1)C(=O)N[C@@H](CCC(N)=O)C(=O)N[C@@H](CO)C(=O)N[C@@H](CCCCN)C(=O)N1CCC[C@@H]1C(=O)N[C@@H](CC(N)=O)C(=O)N[C@H](C(=O)N[C@@H](Cc1cnc[nH]1)C(=O)N[C@H](C(=O)N[C@@H](CC(=O)O)C(=O)NCC(=O)N[C@@H](Cc1ccc(O)cc1)C(=O)N[C@@H](Cc1ccccc1)C(=O)N[C@@H](CCC(=O)O)C(=O)N[C@@H](CCCNC(=N)N)C(=O)N[C@@H](CC(C)C)C(=O)NC(C)(C)C(=O)N[C@@H](C)C(=O)N[C@@H](CCCCN)C(=O)N[C@@H](CC(C)C)C(N)=O)C(C)C)C(C)C	19.8%	1.2%
CC(=O)N[C@@H](Cc1ccccc1)C(=O)N[C@@H](CCC(N)=O)C(=O)N[C@@H](CO)C(=O)N[C@@H](CCCCN)C(=O)N1CCC[C@@H]1C(=O)N[C@@H](CC(N)=O)C(=O)N[C@H](C(=O)N[C@@H](Cc1c[nH]cn1)C(=O)N[C@H](C(=O)N[C@@H](CC(=O)O)C(=O)NCC(=O)N[C@@H](Cc1ccc(O)cc1)C(=O)N[C@@H](Cc1ccccc1)C(=O)N[C@@H](CCC(=O)O)C(=O)N[C@@H](CCCNC(=N)N)C(=O)N[C@@H](CC(C)C)C(=O)NC(C)(C)C(=O)N[C@@H](C)C(=O)N[C@@H](CCCCN)C(=O)N[C@@H](CC(C)C)C(N)=O)C1CCCCC1)C(C)C	27.6%	5.4%
CC(=O)N[C@@H](Cc1ccccc1)C(=O)N[C@@H](CCC(N)=O)C(=O)N[C@@H](CO)C(=O)N[C@@H](CCCCN)C(=O)N1CCC[C@@H]1C(=O)N[C@@H](CC(N)=O)C(=O)N[C@H](C(=O)N[C@@H](Cc1cnc[nH]1)C(=O)N[C@H](C(=O)N1CCC[C@H]1C(=O)NCC(=O)N[C@@H](Cc1ccc(O)cc1)C(=O)N[C@@H](Cc1ccccc1)C(=O)NC(C)(C)C(=O)N[C@@H](CCCNC(=N)N)C(=O)N[C@@H](CC(C)C)C(=O)NC(C)(C)C(=O)N[C@@H](C)C(=O)N[C@@H](CCCCN)C(=O)N[C@@H](CC(C)C)C(N)=O)C(C)C)C(C)C	99.5%	31.2%
CCCCCCCCCCCCCCCC(=O)NCCCOCCOCCOCCCNC(=O)CCNC(=O)CCC(=O)NCCCC[C@H](NC(=O)[C@H](CC(C)C)NC(=O)[C@H](CCCCN)NC(=O)[C@H](C)NC(=O)C(C)(C)NC(=O)[C@H](CC(C)C)NC(=O)[C@H](CCCNC(=N)N)NC(=O)[C@H](CCC(=O)O)NC(=O)[C@H](Cc1ccccc1)NC(=O)[C@H](Cc1ccc(O)cc1)NC(=O)[C@@H](C)NC(=O)[C@H](CC(=O)O)NC(=O)[C@@H](NC(=O)[C@H](Cc1cnc[nH]1)NC(=O)[C@@H](NC(=O)[C@H](CSCNC(C)=O)NC(=O)[C@H]1CCCN1C(=O)[C@H](CCCCN)NC(=O)[C@H](CO)NC(=O)[C@H](CCC(N)=O)NC(=O)[C@H](Cc1ccccc1)NC(=O)CCCCC)C(C)C)C(C)(C)C)C(N)=O	108%	67.5%
CC(=O)NCSC[C@H](NC(=O)[C@H]1CCCN1C(=O)[C@H](CCCCN)NC(=O)[C@H](CO)NC(=O)[C@H](CCC(N)=O)NC(=O)[C@H](Cc1ccccc1)NC(C)=O)C(=O)N[C@H](C(=O)N[C@@H](Cc1cnc[nH]1)C(=O)N[C@H](C(=O)N[C@@H](CC(=O)O)C(=O)N[C@H](C)C(=O)N[C@@H](Cc1ccc(O)cc1)C(=O)N[C@@H](Cc1ccccc1)C(=O)N[C@@H](CCC(=O)O)C(=O)N[C@@H](CCCNC(=N)N)C(=O)N[C@@H](CC(C)C)C(=O)NC(C)(C)C(=O)N[C@@H](C)C(=O)N[C@@H](CCCCN)C(=O)N[C@@H](CC(C)C)C(N)=O)C(C)(C)C)C(C)C	86.2%	43%
CC(=O)N[C@@H](Cc1ccccc1)C(=O)N[C@@H](CCC(N)=O)C(=O)N[C@@H](CO)C(=O)N[C@@H](CCCCN)C(=O)N1CCC[C@@H]1C(=O)N[C@@H](CC(N)=O)C(=O)N[C@H](C(=O)N[C@@H](Cc1cnc[nH]1)C(=O)N[C@H](C(=O)N[C@@H](CC(=O)O)C(=O)NCC(=O)N[C@@H](Cc1ccc(O)cc1)C(=O)N[C@@H](Cc1ccccc1)C(=O)N[C@@H](CCC(=O)O)C(=O)N[C@@H](CCCNC(=N)N)C(=O)N[C@@H](CC(C)C)C(=O)NC(C)(C)C(=O)N[C@@H](C)C(=O)N[C@@H](CCCCN)C(=O)N[C@@H](CC(C)C)C(N)=O)C(C)C)C1CCCCC1		4.1%
